According to the NIST ThermoML archive (doi:10.1016/j.jct.2006.05.008):
± gives the expanded uncertainty stated by the source.

Experiment: molar heat capacity at saturation pressure
Conditions: Glass, Small (less than 1 g) adiabatic calorimetry

CCC[n+]1ccn(C)c1.[Br-] [1-methyl-3-propylimidazolium bromide]
Conditions	molar heat capacity [J/K/mol]
80.55 K	98.61 ± 0.59
82.89 K	100.33 ± 0.6
84.9 K	101.67 ± 0.61
86.92 K	103.14 ± 0.62
88.94 K	104.66 ± 0.62
90.96 K	106.14 ± 0.63
92.98 K	107.59 ± 0.63
95 K	109.05 ± 0.64
97.02 K	110.46 ± 0.64
99.05 K	111.82 ± 0.65
101.08 K	113.17 ± 0.65
103.11 K	114.53 ± 0.66
105.14 K	115.8 ± 0.66
107.17 K	117.19 ± 0.67
109.2 K	118.42 ± 0.67
111.24 K	119.73 ± 0.68
113.29 K	120.92 ± 0.68
115.33 K	122.2 ± 0.69
117.37 K	123.41 ± 0.69
119.41 K	124.68 ± 0.7
121.46 K	125.82 ± 0.7
123.5 K	127.01 ± 0.71
125.55 K	128.16 ± 0.71
127.6 K	129.31 ± 0.72
129.65 K	130.51 ± 0.72
131.7 K	131.69 ± 0.73
133.75 K	132.94 ± 0.73
135.8 K	134.11 ± 0.74
137.86 K	135.27 ± 0.74
139.91 K	136.51 ± 0.75
141.97 K	137.66 ± 0.75
144.02 K	138.89 ± 0.75
146.09 K	140.08 ± 0.76
148.15 K	141.29 ± 0.77
150.21 K	142.47 ± 0.77
152.27 K	143.7 ± 0.78
154.33 K	144.86 ± 0.78
156.39 K	146.04 ± 0.78
158.46 K	147.24 ± 0.79
160.52 K	148.42 ± 0.79
162.58 K	149.59 ± 0.8
164.65 K	150.76 ± 0.8
166.71 K	151.98 ± 0.81
168.78 K	153.15 ± 0.81
170.84 K	154.38 ± 0.82
172.91 K	155.61 ± 0.82
174.97 K	156.8 ± 0.83
177.04 K	158.04 ± 0.83
179.11 K	159.26 ± 0.84
181.18 K	160.5 ± 0.84
183.25 K	161.87 ± 0.85
185.32 K	163.21 ± 0.85
187.39 K	164.56 ± 0.86
189.46 K	165.92 ± 0.86
191.53 K	167.36 ± 0.87
193.61 K	168.95 ± 0.88
195.69 K	170.66 ± 0.88
197.77 K	172.38 ± 0.89
199.86 K	174.39 ± 0.9
201.95 K	176.91 ± 0.91
202.67 K	177.34 ± 0.91
204.04 K	179.87 ± 0.92
205.14 K	181.79 ± 0.93
206.12 K	184.42 ± 0.94
207.25 K	188.13 ± 0.96
208.16 K	192.2 ± 0.98
209.29 K	200.7 ± 1
210.11 K	209.2 ± 1.1
211.19 K	228.95 ± 1.2
211.92 K	238.53 ± 1.2
213.01 K	255.28 ± 1.2
213.79 K	257.19 ± 1.2
215.01 K	258.34 ± 1.2
215.82 K	258.85 ± 1.2
